Test results taken from the NIST ThermoML archive (doi:10.1016/j.jct.2012.12.001).

Assay: heat capacity at constant pressure per volume; xn = mol fraction of the nth substance listed
Conditions: 101 kPa, Liquid, DSC, x2 = 0.713

CCCCCCCCCCCCCCCCCC [octadecane] + N#Cc1ccccc1
Conditions	heat capacity [J/K/m3]
303.58 K	1893500
303.61 K	1895600
303.64 K	1894200
303.66 K	1894100
303.69 K	1893500
303.72 K	1893700
303.75 K	1897900
303.78 K	1897000
303.8 K	1893000
303.83 K	1895200
303.86 K	1892600
303.89 K	1900300
303.92 K	1898300
303.94 K	1898400
303.97 K	1899900
304 K	1891800
304.03 K	1897900
304.06 K	1900800
304.09 K	1899300
304.11 K	1897800
304.14 K	1899100
304.17 K	1900600
304.2 K	1897100
304.23 K	1902700
304.25 K	1900600
304.28 K	1893900
304.31 K	1900100
304.34 K	1897300
304.37 K	1899500
304.39 K	1898900
304.42 K	1904200
304.45 K	1900400
304.48 K	1895000
304.51 K	1898500
304.54 K	1903400
304.56 K	1902200
304.59 K	1903900
304.62 K	1901200
304.65 K	1901800
304.68 K	1903500
304.7 K	1904200
304.73 K	1899600
304.76 K	1899700
304.79 K	1900400
304.82 K	1904800
304.84 K	1903700
304.87 K	1904600
304.9 K	1904600
304.93 K	1903200
304.96 K	1902600
304.98 K	1900600
305.01 K	1902200
305.04 K	1902200
305.07 K	1903000
305.1 K	1907100
305.12 K	1903100
305.15 K	1908100
305.18 K	1904700
305.21 K	1904200
305.24 K	1905700
305.27 K	1907500
305.29 K	1908300
305.32 K	1908600
305.35 K	1908400
305.38 K	1906900
305.41 K	1907700
305.44 K	1908100
305.46 K	1909400
305.49 K	1908500
305.52 K	1909000
305.55 K	1908400
305.57 K	1909200
305.6 K	1906500
305.63 K	1908200
305.66 K	1908500
305.69 K	1909100
305.72 K	1909500
305.74 K	1911100
305.77 K	1910000
305.8 K	1907500
305.83 K	1908700
305.86 K	1914100
305.88 K	1911500
305.91 K	1910100
305.94 K	1909200
305.97 K	1909700
306 K	1906900
306.02 K	1909600
306.05 K	1913100
306.08 K	1913500
306.11 K	1917400
306.14 K	1917300
306.17 K	1913000
306.19 K	1914700
306.22 K	1914300
306.25 K	1915600
306.28 K	1918100
306.31 K	1915700
306.33 K	1916100
306.36 K	1913300
306.39 K	1910700
306.42 K	1914500
306.45 K	1911200
306.48 K	1914800
306.5 K	1918100
306.53 K	1921200
306.56 K	1920200
306.59 K	1916400
306.62 K	1922000
306.64 K	1923600
306.67 K	1922600
306.7 K	1921800
306.73 K	1922000
306.76 K	1921100
306.78 K	1915500
306.81 K	1915900
306.84 K	1920400
306.87 K	1916900
306.9 K	1923600
306.93 K	1927300
306.95 K	1929700
306.98 K	1927500
307.01 K	1924100
307.04 K	1928000
307.06 K	1932100
307.09 K	1924600
307.12 K	1927400
307.15 K	1929100
307.18 K	1928200
307.21 K	1926400
307.23 K	1925500
307.26 K	1931000
307.29 K	1928800
307.32 K	1935200
307.35 K	1931700
307.37 K	1930400
307.4 K	1932600
